Tested on: methanogenic archaea
Assay: In vitro sequential batch fermentation of sheep ruminal fluid with alfalfa hay (Example 2)
Format: cell-based
Settings: for Acetate / Butyrate / Gas / Methane / Propionate / Total VFA: 48 hrs at 39° C., 100 μl/tube, monacolin K 20 μg/ml final
Excerpt: The effect of a rice extract fermented by a selected strain of Monascus sp., prepared in accordance with Example 1, on ruminal fermentation, specifically on methane production, was studied in vitro by using a sequential batch fermentation system.
Three sheep equipped with rumen cannulae, receiving hay-based feed twice a day, were used as ruminal content donors. The ruminal contents of the three animals were sampled in the morning before feeding, filtered through a cloth with a mesh size of 400 μm in diameter in order to obtain the liquid phase, and mixed in equal quantities. To seventy-five milliliters of this mixed ruminal fluid was added 300 ml of anaerobic buffer solution (Weller & Pilgrim, Br. J. Nutr. 32:341-51. 1974). An aliquot fraction (5 ml) of this ruminal fluid/buffer solution was then transferred into Hungate tubes in a CO2 atmosphere containing 100±2 mg of alfalfa hay. To each tube was added, respectively: (i) 100 μl of the Monascus extract, or (ii) pure monacolin K, (iii) a 25% (v/v) ethanol solution, or (iv) water (see Table 1 below). The tubes were incubated at 39° C. for 48 hrs. Each treatment was performed three times.
After 48 hrs. of incubation, 2 ml of each of the triplicates of each treatment were mixed, and 1.5 ml of this mixture was used to inoculate 3 new Hungate tubes containing 3.5 ml of buffer and 100 mg of alfalfa hay.
Next, 100 μl of the various treatments was added to the tubes (Cf. Table 1 above), and the tubes were again incubated at 39° C. while stirring for an additional 48 hrs. This procedure was repeated a second time.
At the end of each 48-hr. period, gas production and concentrations of methane and of volatile fatty acids resulting from fermentation were measured.

Structure (SMILES): CC[C@H](C)C(=O)O[C@H]1C[C@@H](C)C=C2C=C[C@H](C)[C@H](CC[C@@H]3C[C@@H](O)CC(=O)O3)[C@H]21 [Monacolin K, monacolin K]
- Acetate (1st Transfer): 69.6 ± 1.5 mmol/L
- Butyrate (1st Transfer): 6.1 ± 0.1 mmol/L
- Gas (1st Transfer): 21.9 ± 0.3 mL
- Methane (1st Transfer): 162.5 ± 22.9 µmol
- Propionate (1st Transfer): 16.7 ± 0.4 mmol/L
- Total VFA (1st Transfer): 96.3 ± 2.1
- Acetate (2nd Transfer): 49.1 ± 3.8 mmol/L
- Butyrate (2nd Transfer): 5.9 ± 0.7 mmol/L
- Gas (2nd Transfer): 17.8 ± 0.5 mL
- Methane (2nd Transfer): 16.2 ± 17.0 µmol
- Propionate (2nd Transfer): 19.7 ± 2.8 mmol/L
- Total VFA (2nd Transfer): 76.5 ± 7.4
- Acetate (3rd Transfer): 57.3 ± 6.9 mmol/L
- Butyrate (3rd Transfer): 6.6 ± 1.0 mmol/L
- Gas (3rd Transfer): 19.2 ± 0.4 mL
- Methane (3rd Transfer): 59.1 ± 9.4 µmol
- Propionate (3rd Transfer): 28.5 ± 3.5 mmol/L
- Total VFA (3rd Transfer): 95.1 ± 11.5
- methane-production-reducing effect (in vitro, under the same conditions as the Monascus fermentation product): no methane-production-reducing effect
